US20120270917A1 (The Trustees of the University of Pennsylvania, priority 2009, published 2012)
Counter-ions that a name gives are not always drawn.

target: T1, AM2 (Influenza A virus, UniProt P0DOF5); test: cell-based; conditions: Oocytes; 100 μM, 2 min; mean ± SE; read-out: AM2 wt % of inhibition by 100 μM 2 min
T1 construct: expressed in transfected cells
T1 sequence (P0DOF5 whole entry): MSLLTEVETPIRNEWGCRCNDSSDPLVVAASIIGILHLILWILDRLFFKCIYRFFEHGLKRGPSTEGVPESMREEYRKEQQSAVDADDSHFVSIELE

| SMILES | inhibition at 100 µM [%] |
| --- | --- |
| NC12CC3CC(CC(C3)C1)C2 [Amantadine, reference compound] | 90.8 ± 2.5 |
| Cl.NC1CCC2(CC1)C1CC3CC(C1)CC2C3 (stereo not drawn) [Compound S15, (1r, 3r,5r,7r)-spiro[adamantane-2,1′-cyclohexan]-4′-aminium chloride] | 89.1 ± 1.3 |
| CC(N)C12CC3CC(CC(C3)C1)C2 (stereo not drawn) [Rimantadine, reference compound] | 91.2 ± 0.9 |

same assay, conditions: Table 2

| SMILES | IC50 [µM] |
| --- | --- |
| NC1(C(F)(F)F)C2CC3CC(C2)CC1C3 (stereo not drawn) [Compound S6] | 10.1 |
| OC1(C(F)(F)F)C2CC3CC(C2)CC1C3 (stereo not drawn) [Compound S8] | 13.8 |
| O=C1C2CC3CC(C2)CC1C3 [Compound S13] | 28.8 |

same assay, conditions: concentration not given; Table 2

| SMILES | AM2 % inhibition at μM [%] |
| --- | --- |
| Cl.NC1C[C@@H]2C[C@@H]3CC1[C@H](C2)C3 (stereo partly drawn) [Compound S1, (2S,3aS,5R)-octahydro-1H-2,5-methanoinden-7-aminium chloride] | 94.2 |
| Cl.NC12CC3CCC(CC(C3)C1)C2 [Compound S2, tricyclo[4.3.1.13,8]undecan-1-aminium chloride] | 81.3 |
| O=[N+]([O-])C1C2CC3CC(C2)CC1C3 (stereo not drawn) [Compound S3] | 85.6 |
| CC1(O)C2CC3CC(C2)CC1C3 (stereo not drawn) [Compound S4] | 85.8 |
| CC1(N)C2CC3CC(C2)CC1C3 (stereo not drawn) [Compound S5] | 65.0 |
| NC1(C(F)(F)F)C2CC3CC(C2)CC1C3 (stereo not drawn) [Compound S6] | 86.3 |
| NS(=O)(=O)NC1C2CC3CC(C2)CC1C3 (stereo not drawn) [Compound S7] | 81.6 |
| OC1(C(F)(F)F)C2CC3CC(C2)CC1C3 (stereo not drawn) [Compound S8] | 82.9 |
| O=[N+]([O-])C12CC3CC(CC(C3)C1)C2 [Compound S9] | 87.2 |
| Cl.NC12CCC3CC(CC(C3)C1)C2 [Compound S12] | 92 |
| O=C1C2CC3CC(C2)CC1C3 [Compound S13] | 69.6 |

same assay, conditions: read-out: AM2 % inhibition at 100 uM; 100 uM; Table 1

| SMILES | inhibition at 100 µM [%] |
| --- | --- |
| NC12CC3CC(C1)CC(O)(C3)C2 [Compound 38] | 87 |
| N=C(N)NC12CC3CC(CC(C3)C1)C2 [Compound 39, 1-(adamantyl)guanidine] | 97 |
| CC(NC(=N)N)C12CC3CC(CC(C3)C1)C2 (stereo not drawn) [Compound 40] | 94 |
| Cl.Cl.N=C(N)NC(=N)NC12CC3CC(CC(C3)C1)C2 [Compound 41] | 70 |
| NOC12CC3CC(CC(C3)C1)C2 [Compound 42, O-adamantylhydroxylamine] | 87 |
| Cc1nc[nH]c1/C=N/OC12CC3CC(CC(C3)C1)C2 [Compound 43, 5-Methyl-3H-imidazole-4-carbaldehyde O-adamantan-1-yl-oxime] | 81 |
| N=C(N)C12CC3CC(CC(C3)C1)C2 [Compound 44, Adamantane amidine hydrochloride] | 70 |
| NC1CSC2(SC1)C1CC3CC(C1)CC2C3 (stereo not drawn) [Compound 45] | 64 |
| N=C(NO)C12CC3CC(CC(C3)C1)C2 [Compound 46, N-hydroxyadamantanecarboximidamide] | 72.3 |
| C1NC2CC3CC1CC(C3)C2.Cl [Compound 47, 4-Azatricyclo[4.3.1.1^3,8]undecan hydrochloride] | 83.8 |
| NC(=O)C12CC3CC(CC(C3)C1)C2 [Compound 48] | 74.9 |
| O=CC12CC3CC(CC(C3)C1)C2 [Compound 49, 1-adamantanecarboaldehyde] | 65.1 |
| O=C1C2CC3CC(C2)CC1C3 [Compound 50] | 69.6 |
| O=C1C2CC3CC1CC(C2)C3=O [Compound 52, 2,6-diadamantone] | 59.1 |
| OC1(C(F)(F)F)C2CC3CC(C2)CC1C3 (stereo not drawn) [Compound 53, 2-trifluoromethyl-2-adamantol] | 82.9 |
| O=[N+]([O-])C12CC3CC(CC(C3)C1)C2 [Compound 54, 1-nitroadamantane] | 87.2 |
